According to patent US9750817B2, “Amphotericin B derivatives” (priority 2015, dated 2017):
≈ marks a conversion by molar mass, not a printed value. Read-outs that look alike come from different tables or passages of the source.

What was measured:
[1] = test system: Aspergillus fumigatus; test: MIC/MFC broth dilution (CLSI), clinical isolates; format: cell-based; settings: A. fumigatus
Description: (§1) Isolates of Aspergillus fumigatus, Aspergillus flavus, Aspergillus terreus Aspergillus niger, Rhizopus oryzae, Candida albicans and Candida krusei were isolated from patients in Israeli hospitals and used for in vitro efficacy studies.
(§2) Efficacy was evaluated by measuring minimum inhibitory concentration (MIC) and minimum fungicidal concentration (MFC) values for fungal isolates. Testing of isolates was performed according to the Clinical & Laboratory Standards Institute (CLSI) method. (CLSI. 2008. M27-A3 Reference method for broth dilution antifungal susceptibility testing of yeasts; Approved Standard—3rd edition. Clinical and Laboratory Standards Institute, Wayne). RPMI MOPS media was used throughout the experiment as growth and dilution media. Spores and yeast cells were harvested in 0.05% Tween from 24-48 h and cultures were grown in rich yeast extract-agar-glucose (YAG) medium (composed of: 0.5% w/v yeast extract, 1% w/v glucose, 10 millimolar (mM) MgCl2, supplemented with 0.1% v/v trace elements solution, and 0.2% v/v vitamin mix). The spores and the yeast cells were counted and diluted to a final concentration of 2.5×10^4 per ml. A stock solution of 5 mg/ml was prepared in dimethylsulfoxide for free AMB. Compounds 4 and 6 were prepared in sterile saline. Double dilutions of each drug were performed in 100 μL volume of RPMI-MOPS in 96 well plates beginning with a final concentration of 32 micrograms (μg)/well of each drug to 0.06 μg/well. 2500 spores or yeast cells were added to each well. Results were recorded 48 h post incubation at 37° C. […] The MFC was defined as the lowest drug concentration that yielded three or fewer colonies (i.e. 99% of the inoculum was killed).

[2] = Solubility in double-distilled water; format: physicochemical
Description: Physical characteristics of AMB derivatives and of AMB were tested, including solubility.

[3] = test system: mouse embryonic fibroblasts (MEFs); test: MTT viability assay in mouse embryonic fibroblasts; format: cell-based
Description: Reference is made to FIG. 4C. Mouse embryonic fibroblasts were used in this example. 1×10^4 mouse embryonic fibroblasts (MEFs) per well were seeded in 96-well plates and incubated at 37° C. After 24 h the media was replaced with 100 μl culture medium containing serial dilutions of AMB, compounds 4 or 6, or left untreated. After 24 h, the media was replaced by fresh media (100 μl per well) containing 1 mg/ml MTT (3-(4,5-Dimethylthiazol-2-yl)-2,5-Diphenyltetrazolium Bromide, ((Biological Industries, Israel)) reagent and the cells were incubated for an additional 3 h at 37° C. MTT-formazan crystals were dissolved by the addition of 100 μl per well of extraction solution (20% SDS, 50% N,N-dimethyl formamide (DMF), pH=4.7) and incubation for 16 h at 37° C. Absorbance at 570 nm was recorded on a Biotek Synergy HT plate reader.
The results were expressed as the percentage of living cells relative to the untreated control and are depicted in FIG. 4C. The inhibition concentration (IC50) value is the concentration of the compound which inhibited cell growth by 50%.

[4] = Solubility in 0.9% saline after vortex, sonication and centrifuge; format: physicochemical
[5] = test system: Candida krusei; test: MIC/MFC broth dilution (CLSI), clinical isolates; format: cell-based; settings: C. krusei, 3 isolates, 48 h at 37° C.
Description: as §1, §2

[6] = test system: Aspergillus niger; test: MIC/MFC broth dilution (CLSI), clinical isolates; format: cell-based; settings: A. niger, 3 isolates, 48 h at 37° C.
Description: as §1, §2

[7] = test system: Aspergillus terreus; test: MIC/MFC broth dilution (CLSI), clinical isolates; format: cell-based; settings: listed as printed C. terreus, 1 isolate, 48 h at 37° C.
Description: as §1, §2

[8] = test system: Candida albicans; test: MIC/MFC broth dilution (CLSI), clinical isolates; format: cell-based; settings: C. albicans, 2 isolates, 48 h at 37° C.
Description: as §1, §2

[9] = test system: Aspergillus flavus; test: MIC/MFC broth dilution (CLSI), clinical isolates; format: cell-based; settings: A. Flavus, 3 isolates, 48 h at 37° C.
Description: as §1, §2

[10] = test system: Rhizopus oryzae; test: MIC/MFC broth dilution (CLSI), clinical isolates; format: cell-based; settings: 1 isolate, 48 h at 37° C.
Description: as §1, §2

[11] = test system: ICR mice; test: In vivo toxicity, intravenous injection; settings: female ICR mice, intravenous
Description: In-vivo toxicity was determined in mice using 6 week old female ICR mice (n=6). Different concentrations of each formulation were injected intravenously through the tail vein, 0.2 ml per mouse, until death was observed. PAD-AMB conjugates were prepared in sterile saline solution and were filtered through 0.45-micrometer pore-size cellulose acetate sterile filters prior to injection.

[12] = Stability (hydrolysis) in phosphate buffered saline; format: physicochemical
[13] = test system: human erythrocytes; test: In-vitro toxicity (hemolysis) study; format: cell-based; settings: 6 μg/ml
Description: Reference is made to FIG. 4B. Fresh human erythrocytes were diluted 1:100 in PBS, and incubated in an Eppendorf tube while rotating slowly in the presence of 6 μg/ml of each of compound 4 and compound 6. Amphotericin B was used as positive control. Sterile double distilled water served as a control for 100% hemolysis. After 1, 3, 5 and 21 h, 20 μl of each test tube were removed and diluted in 180 μl PBS. Samples were centrifuged for 10 minutes at 1200 RPM and the optical density of the supernatant was measured at 425 nm.

[14] = test system: A. fumigatus (Af 293); test: MIC of compound 6, AMB and FMOC-6; format: cell-based, Aspergillus fumigatus
Description: as §2
(§3) In addition, the amine protected equivalent of compound 6 in which the amine of compound 6 was protected with an FMOC group was tested (designated FMOC-6) to determine MIC versus AMB and versus compound 6 against A. fumigatus (Af 293) and C. albicans (CBS562).

[15] = test system: C. albicans (CBS562); test: MIC of compound 6, AMB and FMOC-6; format: cell-based, Candida albicans
Description: as §2, §3

## CC1C=CC=CC=CC=CC=CC=CC=CC(OC2OC(C)C(O)C(NC(=O)CCOCCOCCOCCOCCN)C2O)CC2OC(O)(CC(O)CC(O)C(O)CCC(O)CC(O)CC(=O)OC(C)C(C)C1O)CC(O)C2C(=O)O (centres unmarked) [AMB-PEG4-amine]
[1]; strain not stated
  MIC: 2 to 3 µg/mL
[2]; double-distilled water
  Solubility: 300 µg/mL (≈ 256 µM)

## COC(=O)C1C(O)CC2(O)CC(O)CC(O)C(O)CCC(O)CC(O)CC(=O)OC(C)C(C)C(O)C(C)C=CC=CC=CC=CC=CC=CC=CC(OC3OC(C)C(O)C(NC(=O)CCOCCOCCOCCOCCN)C3O)CC1O2 (centres unmarked) [AME-PEG4-amine]
[2]
  Solubility: Insoluble

## COC(=O)[C@H]1[C@@H]2C[C@@H](O[C@@H]3O[C@H](C)[C@@H](O)[C@H](N)[C@@H]3O)/C=C/C=C/C=C/C=C/C=C/C=C/C=C/[C@H](C)[C@@H](O)[C@@H](C)[C@H](C)OC(=O)C[C@H](O)C[C@H](O)CC[C@@H](O)[C@H](O)C[C@H](O)C[C@](O)(C[C@@H]1O)O2 [Amphotericin B methyl ester, reference compound]
[2]
  Solubility: <1 µg/mL

## C[C@@H]1[C@H](O)[C@@H](C)/C=C/C=C/C=C/C=C/C=C/C=C/C=C/[C@H](O[C@@H]2O[C@H](C)[C@@H](O)[C@H](NC(=O)CCOCCOCCOCCOCCOCCOCCOCCOCCN)[C@@H]2O)C[C@@H]2O[C@](O)(C[C@@H](O)C[C@@H](O)[C@H](O)CC[C@@H](O)C[C@@H](O)CC(=O)O[C@H]1C)C[C@H](O)[C@H]2C(=O)O [Compound 4, amphotericin B amide-PEG(8)-amine]
[3]; 24 h exposure, MTT
  IC50 (concentration which inhibited cell growth by 50%): 280 µg/mL
[3]; from IC50
  times less toxic than AMB: 40 times
[4]
  increased solubility relative to corresponding non-PEG-conjugated AMB compounds: greater than 5500 fold
[1]; 4 isolates, 48 h at 37° C.
  MFC: 4 to 16 µg/mL
  MIC: 4 to 16 µg/mL
[5]
  MFC: 8 µg/mL (≈ 5.94 µM)
  MIC: 4 to 8 µg/mL
[6]
  MFC: 1 to 4 µg/mL
  MIC: 1 to 4 µg/mL
[7]
  MFC: 32 µg/mL (≈ 23.7 µM)
  MIC: 32 µg/mL (≈ 23.7 µM)
[8]
  MFC: 4 µg/mL (≈ 2.97 µM)
  MIC: 1 to 2 µg/mL
[9]
  MFC: 4 to 8 µg/mL
  MIC: 4 to 8 µg/mL
[10]
  MFC: 8 µg/mL (≈ 5.94 µM)
  MIC: 8 µg/mL (≈ 5.94 µM)
[11]
  mouse LD50 fold higher than AMB: at least 20 fold
  signs of toxicity at the highest injectable doses: did not show any signs of toxicity
[11]; tail vein
  LD50: not reached
  Maximum Dose: 22 mg/kg
[2]; double-distilled water
  Solubility: 5500 µg/mL (≈ 4080 µM)
[12]; 4 hours
  hydrolysis after 4 hours: no hydrolysis could be observed
[12]; 24 hours
  level of hydrolysis after 24 hours: 0.51%
[13]; after 3 h of agitation
  hemolytic activity: small hemolytic activity
[13]; assay conditions of FIG. 4B
  toxicity to erythrocytes: less toxic (about four times less)

## COC(=O)C1C(O)CC2(O)CC(O)CC(O)C(O)CCC(O)CC(O)CC(=O)OC(C)C(C)C(O)C(C)C=CC=CC=CC=CC=CC=CC=CC(OC3OC(C)C(O)C(NC(=O)CCOCCOCCOCCOCCOCCOCCOCCOCCNC(=O)OCC4c5ccccc5-c5ccccc54)C3O)CC1O2 (centres unmarked) [FMOC-6]
[14]
  MIC: >32 µg/mL
[15]
  MIC: >32 µg/mL
